BindingDB's records for patent US11447504 (Bayer Aktiengesellschaft; Bayer Pharma Aktiengesellschaft; …, 2022)
Several values for one entry are separate records, joined by “and”; a condition that tells them apart may be missing. Equal entries are not always repeated.

Target: T1, Induced myeloid leukemia cell differentiation protein Mcl-1 [K194A,K197A,R201A] (Homo sapiens, UniProt Q07820, K194A/K197A/R201A)
T1 construct: gene MCL1
Assay: MCL-1/Noxa BH3 Peptide (MCL-1 Assay)
Experimental: The dose-dependent inhibition by the compounds described in this invention of the interaction between MCL-1 and the BH3 domain of Noxa (both human) was determined using a steady state binding competition assay with time-resolved fluorescence energy transfer (TR-FRET) readout. […] The MBP-MCL-1 was purchased from Beryllium (Bedford, Mass., USA). […] The Noxa BH3-derived peptide can be obtained from e.g. Biosyntan (Berlin, Germany).

T1 sequence (Q07820 whole entry K194A/K197A/R201A, looked up): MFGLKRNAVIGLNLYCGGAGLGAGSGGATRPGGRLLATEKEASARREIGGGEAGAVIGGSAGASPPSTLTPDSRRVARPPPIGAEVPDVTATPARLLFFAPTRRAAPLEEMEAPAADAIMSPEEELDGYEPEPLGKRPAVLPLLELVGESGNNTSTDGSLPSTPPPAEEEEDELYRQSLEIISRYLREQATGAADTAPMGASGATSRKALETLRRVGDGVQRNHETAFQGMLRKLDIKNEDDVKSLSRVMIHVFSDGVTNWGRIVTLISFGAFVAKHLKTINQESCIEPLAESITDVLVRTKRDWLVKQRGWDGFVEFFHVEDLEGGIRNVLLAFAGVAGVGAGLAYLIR

IC50 | Compound
2.2 nM | Cc1c2c(nn1C)N(C)CCCCCn1c(C(=O)O)c(CCCOc3cccc4ccccc34)c3ccc(Cl)c-2c31 [US11447504, Example 71]
2.1 nM and 6.4 nM | CCc1c2c(nn1C)N(C)CCCCCn1c(C(=O)O)c(CCCOc3cccc4cc(F)ccc34)c3ccc(Cl)c-2c31 [US11447504, Example 77]
